The record followed here is patent US5457108A, “5-oxo-dibenzo[a,d]cyclohepta-1,4-dienes” (Bayer Aktiengesellschaft, priority 1992, dated 1995).

Usually IC50 stands for the concentration that gives 50% inhibition.

In one test the target is T1, HIV protease (Human immunodeficiency virus type 1 group M subtype B, UniProt P04585).
T1 construct: purified HIV protease was incubated with synthetic peptide
The test is described as follows: HIV protease enzyme test (cleavage of synthetic Gag peptide, RP-HPLC). In kind it is biochemical. To be noted: purified HIV protease, synthetic peptide substrate, read-out: IC50 (50% inhibition of the protease activity). The method, then:
This is verified by means of an HIV-specific protease enzyme test.
The results of the examples listed below were determined according to the HIV test system described in the following references [cf. Hansen, J., Billich, S., Schulze, T., Sukrow, S. and Molling, K (1988), EMBO Journal, Vol. 7, No. 6, pp. 1785-1791]: purified HIV protease was incubated with synthetic peptide which imitates a cleavage site in the Gag precursor protein and represents an in-vivo cleavage site for the HIV protease. The cleavage products of the synthetic peptide which resulted were analysed by means of reverse phase high performance liquid chromatography (RP-HPLC). The IC50 values which are given refer to the substance concentrations which, under the test conditions set out above, effect a 50% inhibition of the protease activity.

In another test the test system is HIV. The test is described as follows: HIV infection in cell culture (syncytium formation in HIV-infected human PBLs). It counts as cell-based. Particulars: Human immunodeficiency virus 1, Lymphocyte, 72 h; HIV-infected normal human blood lymphocytes (PBLs), 37° C., evaluated day 3 to 6 after infection; read-out: IC50 (50% of the virus-induced syncytia suppressed). The method, then: HIV infection in cell culture
The HIV test was carried out, with minor modifications, according to the method of Pauwels et al. [cf. Journal of Virological Methods 20, (1988), 309-321].
Normal human blood lymphocytes (PBLs) were enriched through Ficoll-Hypaque and stimulated in RPMI 1640, 20% fetal calf serum containing phytohaemagglutinin (90 μg/ml) and interleukin-2 (40 U/ml). For infection with the infectious HIV, the PBLs were pelleted and the cell pellet was subsequently suspended in 1 ml of HIV virus adsorption solution and incubated at 37° C. for 1 hour.
The virus adsorption solution was centrifuged and the infected cell pellet was taken up in growth medium in such a way that the suspension was adjusted to 1×10^5 cells per ml. The cells infected in this manner were pipetted, at 1×10^4 cells/well, into the wells of 96-well microtitre plates.
The first vertical row of the microtitre plate contained only growth medium and cells which were not infected but which otherwise had been treated exactly as described above (cell control). The second vertical row of the microtitre plate contained only HIV-infected cells (virus control) in growth medium. […]
The test mixtures were incubated at 37° C. until the syncytium formation which is typical for HIV appeared in the untreated virus control (between day 3 and 6 after infection) and it was then evaluated microscopically. […]

Regarding `O=C(NCc1ccc2c(c1)[C@@H](O)[C@H](O)c1cc(CNC(=O)OCc3ccccc3)ccc1C2=O)OCc1ccccc1` (relative stereo) [Example 4, (trans)-2,8-Bis-phenylmethoxycarbonylaminomethyl-10,11-dihydroxy-5-oxo-dibenzo[a,d]cyclohepta-1,4-diene], the results for the IC50 at HIV protease and in the test with HIV were 0.005 µM and 10 µM, respectively.

`O=C(NCc1ccc2c(c1)[C@@H](O)[C@@H](O)c1cc(CNC(=O)OCc3ccccc3)ccc1C2=O)OCc1ccccc1` [Example 5, (cis)-2,8-Bis-phenylmethoxycarbonylaminomethyl-10,11-dihydroxy-5-oxo-dibenzo[a,d]cyclohepta-1,4-diene]: the IC50 in the test on HIV was found to be 10 µM.

Turning to `CC(C)(C)S(=O)(=O)CC(Cc1cccc2ccccc12)C(=O)NCc1ccc2c(c1)C(O)C(O)c1cc(CNC(=O)C(Cc3cccc4ccccc34)CS(=O)(=O)C(C)(C)C)ccc1C2=O` (stereo not drawn) [Example 6, (trans)-10,11-Dihydroxy-2,8-bis-[5,5-dimethyl-4,4-dioxo-2-(1-naphthylmethyl)-4-thiahexanoylaminomethyl-5-oxodibenzo[a,d]cyclohepta-1,4-diene], the IC50 at HIV protease was 2 µM.
